Where two headings read alike, the source gives them in different places.
Test system: pulmonary artery of the guinea pig
Assay: relaxing effect on spiral strips of the pulmonary artery of the guinea pig (modified method of Godfraind and Kaba and of Schuman et al.)
Conditions: strips depolarised with 40 mmol/l potassium in calcium-free Tyrode solution, contraction by 0.5 mmol/l CaCl2, cumulative addition, mean value of 4 to 6 vessel strips, read-out: IC50 (concentration of the test substance which inhibits the contraction by 50%) (converted)
Procedure: The pharmacological effect of the compounds of the formula I was determined according to a modified method of Godfraind and Kaba (Arch. Int. Phamacodyn. Ther. 196, (Suppl) 35 to 49, 1972) and of Schuman et al. (Naunyn-Schmiedeberg's Arch. Phamacol. 289, 409 to 418, 1975). Spiral strips of the pulmonary artery of the guinea pig are depolarised with 40 mmol/1 of potassium after equilibration in calcium-free Tyrode solution. An addition of 0.5 mmol/1 of CaCl2 then induces a contraction. The relaxing effect of the test substance is determined by cumulative addition in 1/2 log 10 stepped concentrations. The concentration of the test substance which inhibits the contraction by 50% (=IC50, mol/1) is determined from the concentration-effect curve (abscissa: -log mol/1 of test substance, ordinate: percentage inhibition of the maximum contraction, mean value of 4 to 6 vessel strips).

Row | IC50 | IC50 (Cavia porcellus) | SMILES
1 | > 100 µM | – | CCOC(=O)[N-]c1cn(N2CCOCC2)n[o+]1 [Molsidomine, N-ethoxycarbonyl-3-morpholinosydnoneimine, reference compound]
2 | – | 60 µM | CC(C)(C)NC(=O)C(C)(C)[n+]1noc([O-])n1 [Example 4, 3-(1-tert-Butylaminocarbonyl-1-methylethyl)-1,2,3,4-oxatriazolium-5-olate]
3 | – | 0.6 µM | CCCC(C)(C)[n+]1noc([O-])n1 [Example 5, 3-(2-Methylpent-2-yl)-1,2,3,4-oxatriazolium-5-olate]
4 | – | 3 µM | CCC(C)(C)[n+]1noc([O-])n1 [Example 1, 3-tert-Pentyl-1,2,3,4-oxatriazolium-5-olate]

Source: patent US5091398A, “Substituted 1,2,3,4-oxatriazolium-5-olates, a process for their preparation and their use” (Cassella Aktiengellschaft, priority 1989, dated 1992)
